Measured values taken from ChEMBL document CHEMBL2010651, “Discovery and hit-to-lead optimization of pyrrolopyrimidines as potent, state-dependent Na(v)1.7 antagonists” (Bioorg Med Chem Lett, 2012).
In brackets after ≈: the same amount, converted by molar mass.

Key:
Format in all cases: physicochemical
[1] = Lipophilicity, log D of the compound at pH 7.4; details: buffer
[2] = Solubility in phosphate buffered saline
[3] = Solubility in simulated intestinal fluid
[4] = Solubility in 0.01 N HCl

| Structure (SMILES) | logD [1] | also measured |
| --- | --- | --- |
| Fc1cccc(Cn2ccc3c(OC4CCN(Cc5cscn5)CC4)ncnc32)c1F | 3.45 | – |
| c1ccc(Cn2ccc3c(OC4CCN(Cc5cnccn5)CC4)ncnc32)cc1 | 2.71 | – |
| FC(F)(F)c1cccc(Cn2ccc3c(OC4CCN(Cc5cscn5)CC4)ncnc32)c1 | 4.01 | – |
| O=C(c1cscn1)N1CCC(Oc2ncnc3c2ccn3Cc2ccccc2)CC1 | 3.07 | – |
| Cn1ccnc1CN1CCC(Oc2ncnc3c2ccn3Cc2ccccc2)CC1 | 2.93 | – |
| FC(F)(F)c1ccc(Cn2ccc3c(OC4CCN(Cc5cscn5)CC4)ncnc32)cc1 | 4.01 | – |
| Clc1cccc(Cn2ccc3c(OC4CCN(Cc5cscn5)CC4)ncnc32)c1 | 4.03 | – |
| CC1(C)CN(Cc2ccccc2)c2ncnc(OC3CCN(Cc4cscn4)CC3)c21 | 3.94 | – |
| Fc1c(Cl)cccc1Cn1ccc2c(OC3CCN(Cc4cscn4)CC3)ncnc21 | 4.19 | – |
| Fc1cccc(Cn2ccc3c(OC4CCN(Cc5cscn5)CC4)ncnc32)c1 | 3.49 | – |
| Clc1cn(Cc2ccccc2)c2ncnc(OC3CCN(Cc4cscn4)CC3)c12 | 4.03 | – |
| c1ccc(Cn2ccc3c(OC4CCN(Cc5ccn[nH]5)CC4)ncnc32)cc1 | 3.02 | – |
| Fc1c(Cn2ccc3c(OC4CCN(Cc5cscn5)CC4)ncnc32)cccc1C(F)(F)F | 4.08 | – |
| Fc1cccc(Cn2ccc3c(OC4CCN(Cc5ccccn5)CC4)ncnc32)c1F | 3.71 | – |
| Cc1ccccc1Cn1ccc2c(OC3CCN(Cc4cscn4)CC3)ncnc21 | 3.9 | – |
| Cc1ccc(CN2CCC(Oc3ncnc4c3ccn4Cc3ccccc3)CC2)nc1 | 4.15 | – |

| Structure (SMILES) | logD [1] | also measured |
| --- | --- | --- |
| Fc1cn(Cc2ccccc2)c2ncnc(OC3CCN(Cc4cscn4)CC3)c12 | 3.49 | – |
| Fc1ccc(CN2CCC(Oc3ncnc4c3ccn4Cc3ccccc3)CC2)nc1 | 3.76 | – |
| Cc1cccc(Cn2ccc3c(OC4CCN(Cc5cscn5)CC4)ncnc32)c1 | 3.9 | – |
| Fc1cccc(F)c1Cn1ccc2c(OC3CCN(Cc4cscn4)CC3)ncnc21 | 3.58 | – |
| Fc1ccc(Cn2ccc3c(OC4CCN(Cc5cscn5)CC4)ncnc32)cc1 | 3.49 | – |
| c1ccc(Cn2ccc3c(OC4CCN(Cc5cccnc5)CC4)ncnc32)cc1 | 3.67 | – |
| Cc1c(C)n(Cc2ccccc2)c2ncnc(OC3CCN(Cc4cscn4)CC3)c12 | 4.35 | solubility [2]: 65 µg/mL (≈ 150 µM); solubility [3]: 177 µg/mL (≈ 408 µM); solubility [4]: > 200 µg/mL |
| c1ccc(Cn2ccc3c(OC4CCN(Cc5nccs5)CC4)ncnc32)cc1 | 4.81 | – |
| c1ccc(-n2ccc3c(OC4CCN(Cc5cscn5)CC4)ncnc32)cc1 | 3.3 | – |
| Cc1ccc(Cn2ccc3c(OC4CCN(Cc5cscn5)CC4)ncnc32)cc1 | 3.9 | – |
| Cc1cn(Cc2ccccc2)c2ncnc(OC3CCN(Cc4cscn4)CC3)c12 | 3.89 | – |
| CC1(C)C(=O)N(Cc2ccccc2)c2ncnc(OC3CCN(Cc4cscn4)CC3)c21 | 2.39 | – |
| Cc1nc(CN2CCC(Oc3ncnc4c3ccn4Cc3ccccc3)CC2)cs1 | 4.1 | – |
| Cc1ccnc(CN2CCC(Oc3ncnc4c3ccn4Cc3ccccc3)CC2)c1 | 4.15 | – |
| Clc1ccc(Cn2ccc3c(OC4CCN(Cc5cscn5)CC4)ncnc32)cc1 | 4.03 | – |

Continued, in another order:

| logD [1] | Structure (SMILES) | also measured |
| --- | --- | --- |
| 2.18 | c1ccc(Cn2ncc3c(OC4CCN(Cc5cscn5)CC4)ncnc32)cc1 | – |
| 3.49 | Fc1ccccc1Cn1ccc2c(OC3CCN(Cc4cscn4)CC3)ncnc21 | – |
| 3.77 | Fc1cccnc1CN1CCC(Oc2ncnc3c2ccn3Cc2ccccc2)CC1 | – |
| 3.87 | c1ccc(CCn2ccc3c(OC4CCN(Cc5cscn5)CC4)ncnc32)cc1 | – |
| 3.16 | c1ccc(Cn2ccc3c(OC4CCN(Cc5cn[nH]c5)CC4)ncnc32)cc1 | – |
| 3.69 | c1ccc(Cn2ccc3c(OC4CCN(Cc5ccncc5)CC4)ncnc32)cc1 | – |
| 4.15 | Cc1cccnc1CN1CCC(Oc2ncnc3c2ccn3Cc2ccccc2)CC1 | – |
| 2.28 | c1ccc(Cn2cnc3c(OC4CCN(Cc5cscn5)CC4)ncnc32)cc1 | – |
| 3.01 | Cn1cc(CN2CCC(Oc3ncnc4c3ccn4Cc3ccccc3)CC2)cn1 | – |
| 4.01 | FC(F)(F)c1ccccc1Cn1ccc2c(OC3CCN(Cc4cscn4)CC3)ncnc21 | – |
| 4.96 | c1ccc(CN2CCC(Oc3ncnc4c3ccn4Cc3ccccc3)CC2)cc1 | – |
| 4.46 | Fc1c(Cl)cccc1Cn1ccc2c(OC3CCN(Cc4ccccn4)CC3)ncnc21 | – |
| 4.08 | Cc1cccc(CN2CCC(Oc3ncnc4c3ccn4Cc3ccccc3)CC2)n1 | – |
| 3.44 | c1ccc(Cn2ccc3c(OC4CCN(Cc5cscn5)CC4)ncnc32)cc1 | – |
| 3.7 | c1ccc(Cn2ccc3c(OC4CCN(Cc5ccccn5)CC4)ncnc32)cc1 | – |
| 3.75 | Fc1ccccc1Cn1ccc2c(OC3CCN(Cc4ccccn4)CC3)ncnc21 | – |
| 3.83 | Fc1cccc(CN2CCC(Oc3ncnc4c3ccn4Cc3ccccc3)CC2)n1 | – |
| 5.1 | FC(F)(F)c1nc(OC2CCN(Cc3cscn3)CC2)c2ccn(Cc3ccccc3)c2n1 | – |
| 1.24 | c1ccc(Cn2ccc3c(OC4CCNCC4)ncnc32)cc1 | – |
| 5.31 | c1ccc(Cn2ccc3c(OC4CCN(c5ccccc5)CC4)ncnc32)cc1 | – |
| 3.1 | c1ccc(Cn2ccc3c(OC4CCN(Cc5cocn5)CC4)ncnc32)cc1 | – |
| 2.35 | c1ccc(Cn2ccc3c(OC4CCN(Cc5c[nH]cn5)CC4)ncnc32)cc1 | – |
| 4.35 | Fc1c(Cn2ccc3c(OC4CCN(Cc5ccccn5)CC4)ncnc32)cccc1C(F)(F)F | – |
| 4.32 | c1nc(OC2CCN(Cc3cscn3)CC2)c2ccn(CC3CCCCC3)c2n1 | – |
| 4.15 | Cc1nc(OC2CCN(Cc3cscn3)CC2)c2ccn(Cc3ccccc3)c2n1 | – |
